Data published in PMC6268785, “Inhibition of PCAF Histone Acetyltransferase, Cytotoxicity and Cell Permeability of 2-Acylamino-1-(3- or 4-Carboxy-phenyl)benzamides” (Molecules, 2012).
Read-outs that look alike come from different tables or passages of the source.

Legend:
[1] = tested on: HCT-116 (human colon cancer); experiment: SRB cytotoxicity assay, HCT-116; assay type: cell-based; conditions: read-out: IC50 against HCT-116
Procedure: (§1) The cell lines used were HSF (normal cell), HT-29 (human colon cancer), HCT-116 (human colon cancer), MDA-231 (human breast cancer), A549 (human lung cancer), Hep3B (human hepatoma cancer), HeLa (human cervical cancer) and Caki (human kidney cancer) supplied from the Korean Cell Line Bank (Daejeon, Korea). Cells were grown as monolayer cultures in the T-175 flasks (Costar), were subcultured twice a week at 37 °C in an atmosphere containing 5% CO2 in air and 100% relative humidity and maintained at low passage number (5 to 20). RPMI medium 1640, Dulbecco’s modified eagle medium (DMEM, Gibco), fetal bovin serum, (FBS, Gibco), penicillin-streptomycin (P-S, Gibco), phosphate buffered saline pH 7.4 (PBS, Gibco), 0.25% trypsin-EDTA (Gibco), 0.4% trypan blue, dimethyl sulfoxide (DMSO) (Sigma-Aldrich), trichloroacetic acid (Sigma-Aldrich) and sulforhodamine B (SRB) (Sigma-Aldrich) were used.
(§2) Adherent cells at the logarithmic growth phase were detached the by an addition of 3 mL of trypsin-EDTA (1:250) mixture, and they were incubated for 5 min at 37 °C. The cells were plated (200 μL per well) in 96 well flat-bottom microplates at densities of 3 × 10^3 cells per well. The cells were plated in sextuplicate (six replicate wells per cell density) and experiments were performed three times. Microplates were left for 6 h at 37 °C, so that the cells were able to attach to the bottom of the wells before the fixation protocol was carried out.
(§3) […]. Then, cold (4 °C) 50% TCA (50 μL) was added to the top of 200 μL culture medium in each well to produce a final TCA concentration of 10%. Microplates were left for 30 min at 4 °C, and subsequently, they were washed five times with deionized water. Microplates were then left to dry at room temperature for at least 24 h.
(§4) The SRB assay was carried out as previously described. In brief, 0.4% (w/v) sulforhodamine B (70 μL) in acetic acid solution were added to each well and left at room temperature for 20 min. SRB was removed and the plates washed five times with 1% acetic acid before air drying. Bound SRB was solubilized with 10 mM unbuffered Tris-base solution (200 μL) and the plates were left on a plate shaker for at least 10 min. Absorbance was read in a 96-well plate reader at 492 nm subtracting the background measurement at 620 nm. The test optical density (OD) value was defined as the absorbance of each individual well, minus the blank value.

[2] = tested on: HT-29 (human colon cancer); experiment: SRB cytotoxicity assay, HT-29; assay type: cell-based; conditions: read-out: IC50 against HT-29
Procedure: as §1, §2, §3, §4

[3] = tested on: MDA-231 (human breast cancer); experiment: SRB cytotoxicity assay, MDA-231; assay type: cell-based; conditions: read-out: IC50 against MDA-231
Procedure: as §1, §2, §3, §4

HSF (normal cell) = experiment: SRB cytotoxicity assay, HSF normal cell line; assay type: cell-based; conditions: read-out: IC50 against HSF
Procedure: as §1, §2, §3, §4

[4] = tested on: Caki (human kidney cancer); experiment: SRB cytotoxicity assay, Caki; assay type: cell-based; conditions: mean ± standard error, read-out: IC50 against Caki
Procedure: as §1, §2, §3, §4

PCAF HAT = biological target: T1, PCAF HAT (Homo sapiens, UniProt Q92831); experiment: PCAF HAT inhibition assay (fluorescent, CPM detection of CoA-SH); assay type: biochemical; conditions: for inhibition at 100 µM: read-out: PCAF HAT inhibition (%)
T1 construct: purchased Cayman Co., Ann Arbor, MI, USA
Procedure: The structural analogues were derived from anthranilic acid by introducing the acyl chain at the 2- position, and 3- or 4-carboxyaniline at the 1-position, respectively. The ability of new compounds 8–19 to inhibit HAT activity was analyzed in vitro using PCAF HAT enzymatic kit (Cayman Co., Ann Arbor, MI, USA). Anacardic acid, a commercially available HAT inhibitor, was used as a positive control.
The PCAF HAT inhibition studies were performed using a fluorescent assay as described previously. The enzyme activity was measured by the detection of CoA-SH by the fluorescent dye 7-(diethylamino)-3-(4'-maleimidylphenyl)-4-methylcoumarin (CPM). In brief, assay buffer (15 μL), acetyl CoA (5 μL) and diluted PCAF (10 μL) were added to all the wells. Dimethylsulfoxide (DMSO, 5 μL) was added to 100% initial activity wells and the background wells, and inhibitor (100 μM, 5 μL) was added to the inhibitor wells. PCAF HAT peptide (20 μL) was added to all the wells except the background wells. The wells were incubated on a shaker for 5 minutes at room temperature and HAT stop reagent (50 μL) was added to all the wells including the background wells. HAT peptide (20 μL) was added to the background wells only. HAT developer (100 μL) was added to all the wells including the background wells and incubated for 20 minutes at room temperature. Then, read the plate using an excitation wavelength of 360–390 nm and an emission wavelength of 450–470 nm. Subtract the fluorescence of the background wells from the fluorescence of the 100% initial activity and the inhibitor wells. The percent inhibition for each sample was determined as follows: [drawing 2]

[5] = tested on: HeLa (human cervical cancer); experiment: SRB cytotoxicity assay, HeLa; assay type: cell-based; conditions: mean ± standard error, read-out: IC50 against HeLa
Procedure: as §1, §2, §3, §4

A549 (human lung cancer) = experiment: SRB cytotoxicity assay, A549; assay type: cell-based; conditions: read-out: IC50 against A549
Procedure: as §1, §2, §3, §4

[6] = tested on: Hep3B (human hepatoma cancer); experiment: SRB cytotoxicity assay, Hep3B; assay type: cell-based; conditions: mean ± standard error, read-out: IC50 against Hep3B
Procedure: as §1, §2, §3, §4

Caco-2 cell monolayers = experiment: Caco-2 cell permeability assay; assay type: in vitro ADME, human; conditions: Caco-2, apical to basolateral, initial concentration 50 μM; mean ± SD
[7] = tested on: seven human cancer cell lines; experiment: SRB cytotoxicity assay, panel of seven cancer cell lines (summary in words); assay type: cell-based
Procedure: as §1
Adherent cells at the logarithmic growth phase were detached the by an addition of 3 mL of trypsin-EDTA (1:250) mixture, and they were incubated for 5 min at 37 °C. […]
The SRB assay was carried out as previously described. […] Absorbance was read in a 96-well plate reader at 492 nm subtracting the background measurement at 620 nm. The test optical density (OD) value was defined as the absorbance of each individual well, minus the blank value.

[8] = Homo sapiens, HCT-116, mean ± standard error
[9] = Homo sapiens, HT-29, mean ± standard error
[10] = Homo sapiens, MDA-MB-231, mean ± standard error
[11] = Homo sapiens, A549, mean ± standard error

T1 sequence (Q92831 492-658 limits assumed): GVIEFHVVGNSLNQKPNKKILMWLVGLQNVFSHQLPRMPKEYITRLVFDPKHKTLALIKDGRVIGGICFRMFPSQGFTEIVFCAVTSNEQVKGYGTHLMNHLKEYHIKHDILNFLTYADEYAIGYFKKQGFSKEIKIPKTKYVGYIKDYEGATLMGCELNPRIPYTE

Row | Compound | IC50 ([1]; mean ± standard error) | IC50 ([2]; mean ± standard error) | IC50 ([3]; mean ± standard error) | IC50 (HSF (normal cell)) | IC50 [4] | PCAF HAT inhibition (%) (PCAF HAT; 100 μM compound) | IC50 [5] | IC50 (A549 (human lung cancer); mean ± standard error) | IC50 [6] | also measured
1 | 2-Octanoylamino-1-(4-carboxyphenyl)benzamide [Compound 10] | > 100 µM | > 100 µM | 51.8 ± 0.68 µM | > 100 µM | 69.5 ± 7.16 µM | 66% | > 100 µM | > 100 µM | > 100 µM | 
2 | 2-Octanoylamino-1-(3-carboxyphenyl)benzamide [Compound 11] | > 100 µM | > 100 µM | > 100 µM | > 100 µM | > 100 µM |  | > 100 µM | > 100 µM | > 100 µM | PCAF HAT inhibition (%) (PCAF HAT; 100 μM compound, 100 µM): 52%
3 | CCCCCCCCCCCCCCCc1cccc(O)c1C(=O)O [AA, Anacardic acid, reference compound] |  |  |  | > 100 µM |  |  |  |  |  | IC50 [1, 8]: 96.3 ± 4.33 µM; IC50 [2, 9]: 60.4 ± 6.36 µM; IC50 [3, 10]: 44.3 ± 4.2 µM; IC50 ([4]; Homo sapiens): > 100 µM; inhibition at 100 µM (PCAF HAT; 100 μM compound): 68%; IC50 (A549 (human lung cancer); [11]): 70.76 ± 0.41 µM; IC50 ([6]; Homo sapiens, Hep3B): > 100 µM
4 | 2-Dodecanoylamino-1-(4-carboxyphenyl)benzamide [Compound 14] | 53.3 ± 2.05 µM | > 100 µM | > 100 µM | > 100 µM | > 100 µM | 46% | > 100 µM | > 100 µM | > 100 µM | 
5 | 2-Tetradecanoylamino-1-(4-carboxyphenyl)benzamide [Compound 16] | 43.9 ± 2.39 µM | 54.8 ± 1.05 µM | 79.1 ± 3.27 µM | > 100 µM | 63.08 ± 0.21 µM | 72% | 56.5 ± 0.87 µM | 46.2 ± 0.83 µM | 73.3 ± 9.61 µM | Measured Papp (Caco-2 cell monolayers): 68.21 ± 3.56 ×10^−6 cm/s
6 | 2-Dodecanoylamino-1-(3-carboxyphenyl)benzamide [Compound 15] | > 100 µM | > 100 µM | > 100 µM | > 100 µM | > 100 µM | 42% | > 100 µM | > 100 µM | > 100 µM | 
7 | 2-Decanoylamino-1-(4-carboxyphenyl)benzamide [Compound 12] | > 100 µM | > 100 µM | > 100 µM | > 100 µM | 63.8 ± 2.39 µM | 55% | > 100 µM | > 100 µM | > 100 µM | 
8 | Nc1ccccc1C(=O)O [A, Anthranilic acid, reference compound] |  |  |  | > 100 µM |  |  |  |  |  | IC50 [1, 8]: > 100 µM; IC50 [2, 9]: > 100 µM; IC50 [3, 10]: > 100 µM; cytotoxic activity against cancer cell lines (in words) [7]: inactive against most of cancer cell lines; IC50 ([4]; Homo sapiens): > 100 µM; inhibition at 100 µM (PCAF HAT): 34%; IC50 ([5]; Homo sapiens, HeLa): > 100 µM; IC50 (A549 (human lung cancer); [11]): > 100 µM; IC50 ([6]; Homo sapiens, Hep3B): > 100 µM
9 | 2-Hexadecanoylamino-1-(3-carboxyphenyl)benzamide [Compound 19] | 40.3 ± 4.3 µM | 44.8 ± 2.98 µM | > 100 µM | > 100 µM | 82.6 ± 5.89 µM |  | 36.9 ± 3.76 µM | 40.5 ± 3.59 µM | 43.8 ± 5.91 µM | PCAF HAT inhibition (%) (PCAF HAT; 100 μM compound, 100 µM): 61%
10 | 2-Tetradecanoylamino-1-(3-carboxyphenyl)benzamide [Compound 17] | 29.2 ± 3.86 µM | 54.9 ± 3.49 µM | 62.43 ± 0.58 µM | > 100 µM | 55.9 ± 5.09 µM | 79% | 55 ± 3.14 µM | 32.1 ± 1.36 µM | 57.52 ± 0.26 µM | Measured Papp (Caco-2 cell monolayers): 71.48 ± 4.67 ×10^−6 cm/s
11 | 2-Hexanoylamino-1-(4-carboxyphenyl)benzamide [Compound 8] | > 100 µM | > 100 µM | > 100 µM | > 100 µM | > 100 µM | 67% |  | > 100 µM | > 100 µM | 
12 | 2-Decanoylamino-1-(3-carboxyphenyl)benzamide [Compound 13] | > 100 µM | > 100 µM | > 100 µM | > 100 µM | > 100 µM | 45% | > 100 µM | > 100 µM | > 100 µM | 
13 | 2-Hexanoylamino-1-(3-carboxyphenyl)benzamide [Compound 9] | > 100 µM | > 100 µM | > 100 µM | > 100 µM | > 100 µM |  |  | > 100 µM | > 100 µM | 
